Key:
Format in all cases: in vivo, mouse
[1] = tested on: C57BL/6 mice reconstituted with Nur77-EGFP bone marrow, with MI; experiment: Nur77 expression by flow cytometry in Nur77-EGFP bone marrow chimeras, day 7 post-MI; conditions: 7 days treatment
Description: Eight-week-old C57BL/6NRJ female mice were lethally irradiated with a total dose of 910 cGy. One day after irradiation, 1×10^6 total bone marrow cells harvested from donor C57BL/6-Tg(Nr4a1-EGFP/cre)820Khog/J (Nur77-EGFP) mouse and re-suspended in PBS were administered to each recipient mouse via the tail vein. Recipient mice were treated with neomycin in drinking water (2 g/L) for two weeks. Blood samples were collected from all the recipient mice at four weeks after bone marrow transfer, to confirm the success of bone marrow reconstitution by flow cytometry. The mice were used for experiments 6 weeks after bone marrow transfer (FIG. 4S).
In order to investigate the underlying molecular mechanisms involved in the […] of myocardial repair by S100A9 blockade, we induced MI in C57Bl/6 mice transplanted with Nur77-EGFP transgenic bone marrow expressing the fluorescent EGFP protein under the Nur77 promoter (FIG. 4S). The expression of Nur77 was measured by flow cytometry in blood monocytes and heart macrophages harvested on day 7 post-MI from mice receiving 7 days ABR-238901 treatment or PBS. […] Nur77 levels were unaffected in the fully-differentiated Ly6C^lo monocytes and Ly6C^loMerTK^hi macrophages (FIG. 4t; FIG. 11b). Further, we studied the influence of S100A9 on Nur77 expression and activity in monocytes and macrophages in-vitro, and the ability of ABR-238901 to inhibit these effects. Stimulation with recombinant extracellular S100A9 for 24 h increased Nur77 expression in bone marrow-derived C57BL/6 monocytes (FIG. 4U). […] Both of these effects were inhibited by ABR-238901 (FIG. 4U-V).

[2] = tested on: C57BL/6 mice with sepsis induced by bacterial lipopolysaccharide; experiment: LPS-induced sepsis: weight loss
Description: General animal care, induction of sepsis and treatments were performed as described under Example 7. We included 5 mice per treatment group. After induction of sepsis, the mice were monitored for 7 days (FIG. 15A). To evaluate bodyweight, mice were weighed daily at the same time points during the course of the experiment.

[3] = tested on: C57BL/6 mice with MI induced by permanent coronary artery ligation; experiment: Flow cytometry of myeloid cells and BrdU incorporation on day 2 post-MI
Description: Immune cells from blood, spleen, heart and bone-marrow were collected at 2 or 7 days post-MI, and analysed by flow-cytometry. Mice were anesthetized by intraperitoneal injection of a mixture of xylazine (10 mg/kg) and ketamine (100 mg/kg). After 10 minutes, blood was collected by cardiac punction. Thereafter, the spleen was removed and the heart was perfused with 5 ml ice-cold PBS. Perfused hearts were excised and collected into tubes with PBS and kept on ice. Femurs and tibias from each mouse were used to obtain whole bone marrow for analysis. Blood was stained with fluorochrome-labelled antibodies against mouse monocyte and neutrophil markers diluted in MACS buffer (PBS, 10% FCS and 0.5% BSA), followed by treatment with erythrocyte lysis buffer, washing and analysis. Spleens were mashed trough a cell strainer in ice-cold PBS. Hearts were cut into small pieces and placed into tubes containing 2.5 ml digestion cocktail (Collagenase I, 450 U/ml; Collagenase XI, 125 U/ml; DNAase I, 60 U/ml; Hyaluronidase type 1-5, 60 U/ml diluted in PBS containing Ca and Mg) incubated for 1 h at 37° C. with shaking at 220 rpm. Bone marrow was flushed from femur and tibia using ice-cold PBS. Cell suspensions from spleen, heart and bone marrow were filtered through a 40 um cell strainer (BD), treated with erythrocyte lysis buffer, washed and stained. For intracellular staining, cells were fixed, permeabilized and stained. Cell populations were analyzed by flow cytometry in a Gallios Flow Cytometer (Backman Coulter), and the results were analyzed using FlowJo (FlowJo®, LLC; Tree Star). The following anti-mouse antibodies were used for the flow cytometric analysis: anti-CD45 (30-F11), anti-CD11b (M1/70), anti-Ly6C (HK1.4), anti-CD115 (AFS98), anti-Ly6G (1A8), anti-F4/80 (BM8), anti-CCR2 (475301), anti-Ter119 (TER119), anti-Gr1 (RB6-8C5), anti-CD45R/B220 (RA3-6B2), anti-CD3ξ (145-2C11), anti-NK1.1 (PK136), anti-Ly6A/E (Sca-1) (E13-1617), anti-CD117 (c-kit) (2B8), anti-CD48 (HM48.1), anti-CD150/SLAM (TC15-12F12.2), anti-CD16/32 (93), anti-CD34 (MEC14.7) (all from BioLegend, San Diego, Calif., USA); anti-MerTK (DSSMMER) and anti-Nur77 (12.14) (eBioscience).
Mice were injected intraperitoneally with 1 mg BrdU 24 hours prior to organ harvest. Intracellular BrdU staining was performed in hematopoietic stem cells collected from the bone marrow using BrdU flow kits (BD Pharmigen™), according to the manufacturer instructions. BrdU expression was analysed by flow cytometry.
Neutrophilia and monocytosis, elevated circulating numbers of neutrophils and monocytes, have been associated with an adverse prognosis in MI patients. We studied the effects of S100A9 blockade on myeloid cell populations in blood, heart, and myeloid organs on day 2 post-MI, at the peak of the acute inflammatory period. The gating strategy is described in FIG. 8.

COc1ncc(S(=O)(=O)Nc2cncc(Cl)c2O)cc1Br [ABR-238901, 5-bromo-N-(5-chloro-4-hydroxypyridin-3-yl)-6-methoxypyridine-3-sulfonamide]
Intracellular Nur77 levels in blood Ly6Chi/int monocytes [1]: lower
Numbers of reparatory Ly6CloMerTKhi macrophages in the myocardium [1]: reduced
Nur77 levels in Ly6Clo monocytes [1]: unaffected
Nur77 levels in Ly6CloMerTKhi macrophages [1]: unaffected
Decrease in body weight ([2]; day 1): 5.2%
Decrease in body weight ([2]; day 2): 11.7%
Decrease in body weight ([2]; day 3): 8.8%
Decrease in body weight ([2]; day 4): 4%
Number of Ly6Chi monocytes in the bone marrow ([3]; 2 days treatment post-MI): increased
Numbers of proliferating BrdU+ Lin−Sca+Kit+CD150+CD48− hematopoietic stem cells ([3]; bone marrow, 24 h after BrdU): reduced
Numbers of macrophages in the heart ([3]; day 2 post-MI): lower
Numbers of monocytes in the bone marrow ([3]; day 2 post-MI): significantly higher
Numbers of monocytes in the spleen ([3]; day 2 post-MI): did not have a significant effect
Numbers of neutrophils in the spleen ([3]; day 2 post-MI): did not have a significant effect
Neutrophil counts in the bone marrow ([3]; day 2 post-MI, vs MI control): highly increased
Numbers of neutrophils in blood ([3]; day 2 post-MI, vs MI control): significantly lowered
Numbers of neutrophils in myocardium ([3]; day 2 post-MI, vs MI control): significantly lowered
